Blank lines part the entries; values can stand above or below the substance they belong to.
Tests used:
[1] = system: HUVEC cells; assay: HUVEC cell death; format: cell-based, human; details: 60 hrs, 37° C.; higher concentrations
Procedure: FIG. 6 depicts photographs and graphs showing that PIIBNP inhibits angiogenesis. […] Quantification of tube formation was calculated based on branch points per field of view (FIG. 6C) for each treatment ranging from 0.1 μM to 10 μM of PIIBNP. […] GST (▴) and PIIANP (●) had no effect on the cells.
As a second test for angiogenesis, we tested the ability of PIIBNP to inhibit outgrowth of endogenous endothelial cells from freshly isolated rat aorta. […] In order to determine whether PIIBNP caused endothelial cell death, the number of HUVEC cells present after incubation with PIIBNP was determined (FIGS. 6E and 8). Tube formation was inhibited by 50% with 0.1 μM PIIBNP, with no cell death. […] Consequently, PIIBNP can inhibit angiogenesis in a cell line and in endogenous endothelial cells mediated by integrins αVβ3 and αVβ5.

[2] = system: Ch-1 cells; assay: Detection of cell death in Ch-1 cells; format: cell-based, human; details: 0.8 μM, serum free medium, 24 hrs; type I collagen, fibronectin or Matrigel coated plates
Procedure: Cell Culture. Human Chondrosarcoma cell line (Ch-1) was isolated from a portion of chondrosarcoma tumor. The Ch-1 cell line was maintained in RPMI-1640 supplemented with 10% FBS and at 37° C. in a humidified, 5% CO2 atmosphere. Human chondrocytes were obtained from Dr. Davis Adkisson (ISTO Technologies, St. Louis) or isolated from macroscopically intact tissue obtained from total joint arthroplasty as described (Bassleer et al., 1998). HeLa 229 cells and MDA-MB 231 cell lines were provided by Dr. Kathy Weilbaecher (Washington University) and were cultured in RPMI medium supplemented with 10% FBS. HUVEC cells were a gift from Dr. William Frazier (Washington University) and were cultured in M199 Earle's medium with 10 units/ml of penicillin, 5 μg/ml streptomycin and 0.25 μg/ml Fungizone supplemented with 10% FBS, 0.1 mg/ml L-glutamine, 25 mM Hepes, 16 units/ml of heparin (Sigma) and 0.1 mg/ml endothelial cell mitogen (Biochemical Technologies).
Detection of Cell Death. Cells were cultured to confluence in a 24-well plate pre-coated with type I collagen, fibronectin (Sigma), and ECM Matrigel (Becton Dickinson). Proteins in serum-free medium were added to the cells. Cells were monitored by light microscopy and images were digitally photographed using a Q capture Retiga 2000R camera. Quantification of cells remaining in the well was performed by washing with PBS for three times, fixing with 4% paraformaldehyde. The cells per field (×400) were counted for three field per well (3 wells per measurement). The mean number and standard deviation (SD) were calculated.

[3] = target: T1, αVβ3 integrin (Homo sapiens, UniProt P05106+P06756); assay: Cell surface labeling and GST pull-down with immunoblotting; format: binding; details: biotin-labeled Ch-1 membrane proteins, Western blot
T1 construct: Ch-1 membrane proteins were labeled with biotin, and PIIBNP was used to isolate the integrin molecules; endogenous in cells; host or cells: Ch-1 human chondrosarcoma cells (surface-biotinylated, lysed)
T1 sequence (P06756 31-889 limits assumed): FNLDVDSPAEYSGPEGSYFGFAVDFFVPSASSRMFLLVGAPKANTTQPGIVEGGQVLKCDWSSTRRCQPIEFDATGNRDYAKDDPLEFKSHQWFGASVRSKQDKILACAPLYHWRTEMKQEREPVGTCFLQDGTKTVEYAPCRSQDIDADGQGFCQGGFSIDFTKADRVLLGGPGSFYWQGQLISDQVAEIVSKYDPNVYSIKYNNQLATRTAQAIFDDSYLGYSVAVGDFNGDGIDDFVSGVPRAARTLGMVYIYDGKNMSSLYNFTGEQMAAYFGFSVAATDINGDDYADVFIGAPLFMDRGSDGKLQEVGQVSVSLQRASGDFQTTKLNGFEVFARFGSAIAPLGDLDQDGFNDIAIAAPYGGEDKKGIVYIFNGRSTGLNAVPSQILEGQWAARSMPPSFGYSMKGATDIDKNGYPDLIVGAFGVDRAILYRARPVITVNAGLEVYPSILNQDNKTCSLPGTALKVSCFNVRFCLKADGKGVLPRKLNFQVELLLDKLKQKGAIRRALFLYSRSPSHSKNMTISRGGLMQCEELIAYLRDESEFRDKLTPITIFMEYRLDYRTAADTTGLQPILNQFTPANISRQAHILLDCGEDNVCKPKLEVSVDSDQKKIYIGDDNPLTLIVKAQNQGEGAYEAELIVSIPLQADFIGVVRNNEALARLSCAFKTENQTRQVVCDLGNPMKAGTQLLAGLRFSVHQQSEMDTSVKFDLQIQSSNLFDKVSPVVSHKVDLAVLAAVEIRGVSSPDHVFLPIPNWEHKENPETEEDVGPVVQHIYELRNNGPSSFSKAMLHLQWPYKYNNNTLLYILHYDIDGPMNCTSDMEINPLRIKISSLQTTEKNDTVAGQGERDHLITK
T1 sequence (P06756 891-1048 limits assumed): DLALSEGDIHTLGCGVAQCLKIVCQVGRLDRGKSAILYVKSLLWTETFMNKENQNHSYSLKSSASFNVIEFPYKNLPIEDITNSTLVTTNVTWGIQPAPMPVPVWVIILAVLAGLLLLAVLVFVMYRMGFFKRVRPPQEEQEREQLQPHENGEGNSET
T1 sequence (P05106 27-788): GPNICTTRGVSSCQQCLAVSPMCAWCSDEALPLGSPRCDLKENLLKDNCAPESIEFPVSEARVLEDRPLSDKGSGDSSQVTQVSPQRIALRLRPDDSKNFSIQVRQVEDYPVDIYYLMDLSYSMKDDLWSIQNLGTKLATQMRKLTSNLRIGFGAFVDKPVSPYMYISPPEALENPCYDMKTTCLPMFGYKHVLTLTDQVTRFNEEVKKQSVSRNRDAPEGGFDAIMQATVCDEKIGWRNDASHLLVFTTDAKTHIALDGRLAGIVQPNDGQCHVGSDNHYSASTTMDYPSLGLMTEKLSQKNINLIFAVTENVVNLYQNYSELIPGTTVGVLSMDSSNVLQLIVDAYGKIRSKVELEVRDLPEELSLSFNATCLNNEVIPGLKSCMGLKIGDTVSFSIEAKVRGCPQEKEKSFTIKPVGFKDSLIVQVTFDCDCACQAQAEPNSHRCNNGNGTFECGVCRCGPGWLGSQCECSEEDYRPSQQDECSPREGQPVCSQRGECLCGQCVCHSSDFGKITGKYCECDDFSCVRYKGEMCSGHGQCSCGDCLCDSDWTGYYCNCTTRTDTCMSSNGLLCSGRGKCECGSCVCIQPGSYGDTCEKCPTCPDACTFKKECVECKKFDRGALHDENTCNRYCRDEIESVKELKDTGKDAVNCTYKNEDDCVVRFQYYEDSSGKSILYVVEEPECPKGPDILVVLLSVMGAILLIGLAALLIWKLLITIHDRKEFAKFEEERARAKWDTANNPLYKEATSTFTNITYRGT
Procedure: (§1) Immunoblotting. Western blotting was performed as described (7). Blots were probed with the following primary antibodies: rabbit anti αV, α2, α3, α5, β1, β3, β5 integrin and goat anti actin (Saint Cruz), chicken anti PIIBNP antiserum, and mouse anti exon 2 antiserum.
(§2) Cell Surface labeling and GST Pull-down Assay. Ch-1 cells were incubated with EZ-link Sulfo-NHS-Biotin reagent for 30 mins. according to the product instruction (Sigma). After 3 washes with 0.1 M glycine in PBS, the cells were lysed with a lysis buffer described above. The lysate was incubated with glutathione derivatized agarose beads previously bound with GST, PIIANP, PIIBNP or mPIIBNP for 1 hr. at RT. […] The membrane was washed and incubated with antibodies and then incubated with a secondary antibody coupled to horseradish peroxidase. The antibody complex was visualized by enhanced chemiluminescence.

[4] = target: T2, αVβ5 integrin (Homo sapiens, UniProt P06756+P18084); assay: as above; format: binding; details: biotin-labeled Ch-1 membrane proteins, Western blot
T2 construct: Ch-1 membrane proteins were labeled with biotin, and PIIBNP was used to isolate the integrin molecules; endogenous in cells; host or cells: Ch-1 human chondrosarcoma cells (surface-biotinylated, lysed)
T2 sequence (P06756 31-889 limits assumed): as the sequence (P06756 31-889 limits assumed) above
T2 sequence (P06756 891-1048 limits assumed): as the sequence (P06756 891-1048 limits assumed) above
T2 sequence (P18084 24-799): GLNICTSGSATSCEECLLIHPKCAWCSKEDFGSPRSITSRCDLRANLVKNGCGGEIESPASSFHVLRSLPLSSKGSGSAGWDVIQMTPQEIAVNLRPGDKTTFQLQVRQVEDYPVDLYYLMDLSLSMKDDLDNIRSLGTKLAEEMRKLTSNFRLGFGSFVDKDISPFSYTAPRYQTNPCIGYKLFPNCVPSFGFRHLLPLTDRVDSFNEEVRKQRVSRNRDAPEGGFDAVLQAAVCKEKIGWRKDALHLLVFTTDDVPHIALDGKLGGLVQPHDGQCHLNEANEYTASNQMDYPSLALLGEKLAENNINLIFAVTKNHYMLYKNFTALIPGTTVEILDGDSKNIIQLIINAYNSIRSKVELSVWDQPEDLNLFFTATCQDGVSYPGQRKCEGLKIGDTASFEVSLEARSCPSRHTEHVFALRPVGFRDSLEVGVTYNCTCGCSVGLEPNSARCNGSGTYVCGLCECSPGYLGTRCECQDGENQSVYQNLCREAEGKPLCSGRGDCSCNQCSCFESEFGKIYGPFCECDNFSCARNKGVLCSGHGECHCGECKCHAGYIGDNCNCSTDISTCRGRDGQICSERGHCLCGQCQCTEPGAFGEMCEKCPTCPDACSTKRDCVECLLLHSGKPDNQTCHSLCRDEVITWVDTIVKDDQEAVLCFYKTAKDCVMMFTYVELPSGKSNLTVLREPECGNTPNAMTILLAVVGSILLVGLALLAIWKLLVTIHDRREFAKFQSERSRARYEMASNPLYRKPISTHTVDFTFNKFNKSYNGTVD
Procedure: as §1, §2

[5] = system: Ch-1 cell adhesion to PIIBNP; assay: Inhibition of Ch-1 cell adhesion to PIIBNP by synthetic blocking peptides and integrin antibodies; format: cell-based, human
Procedure: (§3) Cell Adhesion Assay. Cell adhesion assays were performed using a spectrometric method. A 96-well plate was coated at 4° C. overnight with recombinant proteins. Wells were washed three times with RPMI-1640 medium containing 10% FBS. Ch-1 cells were harvested with limited trypsin digestion and plated at 5×10^4 cells per well in RPMI-1640 medium supplemented with 10% FBS for an hours. Proteins were added and incubation continued for 1 hour. The wells were washed three times with pre-warmed PBS to remove non-adherent cells. The adherent cells were fixed with 4% paraformaldehyde in PBS for 10 minutes at room temperature and stained with 0.5% toluidine blue for 5 minutes. The wells were rinsed with water and cells were solubilized with 0.1% SDS. Absorbance at 595 nm was recorded on a SpectraMax plate reader. Synthetic blocking peptides and antibodies to αVβ3 and αVβ5 integrin were pre-incubated with cells for 15 to 30 mins before they were added onto the wells in the inhibition assays.
Antibodies. Monoclonal antibodies used for blocking experiments were: mouse anti αVβ3 and αVβ5 integrins (Chemicon). Polyclonal antibodies for immunohistochemistry and western blotting were rabbit anti human αV, α2, α3, α5, β1, β3, β5 integrin, goat anti human actin (Santa Cruz), mouse anti exon 2, rabbit anti GSTexon 2, and chicken anti PIIBNP (antiserum made in our lab).

[6] = system: Ch-1 cells; assay: Cell adhesion assay (Ch-1 cells on wells coated with recombinant proteins); format: cell-based, human; details: wells coated with recombinant protein
Procedure: as §3
Cell Culture. Human Chondrosarcoma cell line (Ch-1) was isolated from a portion of chondrosarcoma tumor (Chansky et al., J Orthop Res. (1998) 16(5):521-30). The Ch-1 cell line was maintained in RPMI-1640 supplemented with 10% FBS and at 37° C. in a humidified, 5% CO2 atmosphere.

binding to integrin αVβ3 [3]: does not
binding to integrin αVβ5 [4]: does not
Substance: GST: Recombinant GST alone, control protein for the GST fusion proteins [reference compound]
HUVEC cell death [1]: no effect
induction of cell death in Ch-1 cells [2]: did not induce cell death

Substance: GRADNP (listed as Homo sapiens)
inhibition of adhesion ([5]; at 60 μM): ~50%

Substance: PIIBNPn: PIIBNP obtained by cleavage of GST from a GST-PIIBNP fusion protein with thrombin beads
adhesion to Ch-1 cells [6]: strong binding

Substance: GRGDNP (listed as Homo sapiens)
inhibition of adhesion ([5]; at 10 μM): 50%
compete and inhibit adhesion ([5]; synthetic peptides pre-incubated with cells): compete and inhibit adhesion

Reference: US7851436B2, “Inhibition of migration and induction of cell death by the type II collagen amino propeptides” (Washington University, priority 2007, dated 2010)
